From US20080112955A1, “METHOD AND COMPOSITION FOR PREVENTING PAIN IN SICKLE CELL PATIENTS” (TRF PHARMA, INC., priority 2002, published 2008)

B1: trypsin: protease used at 0.02% to pretreat erythrocytes (protein, UniProt P00760 24-246, looked up)
Serine protease 1: IVGGYTCGANTVPYQVSLNSGYHFCGGSLINSQWVVSAAHCYKSGIQVRLGEDNINVVEGNEQFISASKSIVHPSYNSNTLNNDIMLIKLKSAASLNSRVASISLPTSCASAGTQCLISGWGNTKSSGTSYPDVLKCLKAPILSDSSCKSAYPGQITSNMFCAGYLEGGKDSCQGDSGGPVVCSGKLQGIVSWGSGCAQKNKPGVYTKVCNYVSWIKQTIASN

Legend:
[1] = test system: human umbilical vein endothelial cells (HUVECs); test: static gravity adherence assay with dip rinse: erythrocyte adherence to endothelial monolayers; format: cell-based; conditions: for percent adherence of nonsickle RBCs to thrombin-treated endothelium with agent / percent adherence of nonsickle RBCs to untreated endothelium with agent / percent adherence of sickle cells to thrombin-treated endothelium with agent / percent adherence of sickle cells to untreated endothelium with agent: mean±SEM, 100% = nonsickle RBCs on untreated HUVECs, mAbs 1:200, sLeX 100 μM, sialidase 0.1 U/mL; for percent adherence of nonsickle RBCs to thrombin-treated endothelium with agent / percent adherence of nonsickle RBCs to untreated endothelium with agent / percent adherence of sickle cells to thrombin-treated endothelium with agent / percent adherence of sickle cells to untreated endothelium with agent / reduction of adherence of nonsickle RBCs to untreated endothelium: sLac 500 μM; for reduction of adherence of nonsickle RBCs to thrombin-treated endothelium / reduction of adherence of nonsickle RBCs to untreated endothelium / reduction of adherence of sickle cells to thrombin-treated endothelium / reduction of adherence of sickle cells to untreated endothelium: static, vs no agent, sialidase 0.1 U/mL on RBCs; for reduction of adherence of nonsickle RBCs to thrombin-treated endothelium / reduction of adherence of sickle cells to thrombin-treated endothelium: HUVECs 0.1 U/mL thrombin 5 min; for reduction of adherence of nonsickle RBCs to thrombin-treated endothelium / reduction of adherence of sickle cells to thrombin-treated endothelium / reduction of adherence of sickle cells to untreated endothelium: mAbs 1:200, sLac 500 μM; for reduction of adherence of nonsickle RBCs to untreated endothelium / reduction of adherence of sickle cells to untreated endothelium: untreated HUVECs; for reduction of adherence of nonsickle RBCs to untreated endothelium: mAbs 1:200 on HUVECs; for reduction of adherence of sickle cells to thrombin-treated endothelium / reduction of adherence of sickle cells to untreated endothelium: sickle RBCs; for reduction of adherence compared with sLac present: 100 μM sLeX
Experimental: Thrombin treatment of human umbilical vein endothelial cells (HUVECs) and the static gravity adherence assay with dip rinse were performed as previously described. When 90% confluent, HUVECs (Clonetics, San Diego, Calif.) were treated with 0.1 U/mL thrombin (Sigma Chemicals, St Louis, Mo.) or medium alone for 5 minutes before assaying erythrocyte adherence. Adherent RBCs were counted microscopically in 8 randomly selected 0.15-mm2 fields for each study condition. The adherence data may be presented as percent adherence where 100% is the mean adherence of nonsickle RBCs to untreated HUVECs.
Because of potential modulatory effects of heparin on adherence, the static adherence assay was used to compare the adhesivity of sickle cells and autologous plasma according to whether they were prepared with citrate anticoagulant or with heparin. […] The contribution of P-selectin to thrombin-enhanced adherence was determined by comparing the effects on adherence of exposing HUVECs to no antibody, a 1:200 dilution of nonblocking P-selectin monoclonal antibodies (mAbs) AC1.2 (BD Pharmingen, San Diego, Calif.), or a 1:200 dilution of blocking P-selectin mAb 9E1 (R & D Systems, Minneapolis, Minn.).
To determine whether sialic acid on erythrocytes is a recognition determinant for P-selectin, prior to testing RBC adherence the erythrocytes were treated with sialidase using a published method. Packed RBCs were mixed with an equal volume of buffer or 0.1 U/mL Vibrio cholerae sialidase (Calbiochem, San Diego).
(§1) For each experiment mean adherence was set arbitrarily at 100% for the control data. The mean adherence of data derived from perturbations of control conditions were calculated as a percentage relative to the control. The average of the means from replicate experiments was then calculated. The uncertainty of the estimate of the means from the data distributed in each set is described as SEM. An SEM of 0% resulted when control data sets were normalized to 100%. We used the paired one-tailed Student test to compare changes in adhesion resulting from different perturbations of the system.

[2] = test system: P-selectin-Ig chimera; test: nonstatic rotatory adherence assay: erythrocytes on immobilized P-selectin-Ig chimera; format: cell-based, human; conditions: for percent adherence of nonsickle cells to P-selectin with agent / percent adherence of sickle cells to P-selectin with agent: mean±SEM, 100% = untreated nonsickle erythrocytes on BSA or Siglec, 5 mM EDTA or sialidase; for reduction of adherence of nonsickle cells to P-selectin / reduction of adherence of sickle cells to P-selectin: 5 mM EDTA present or RBCs pretreated with 0.1 U/mL sialidase
Experimental: (§2) 400 ng bovine serum albumin (BSA; Sigma), a sialic acid-binding lectin (Siglec)-6-Ig chimera, mutated Siglec-7-Ig chimera, or P-selectin-Ig chimera was immobilized on microtiter wells. […] These chimeras were applied to the wells in 10 mM carbonate buffer overnight and then blocked with 0.5% BSA in Hanks buffered salt solution (University of California, San Francisco, Cell Culture Facility) before incubation with RBCs using a published rotatory adhesion assay. Erythrocyte adherence to BSA, Siglec-6, mutant Siglec-7, or P-selectin was measured as the number of RBCs observed in 8 random 0.04-mm2 fields for each condition. The adherence data are presented as percent adherence where 100% is the mean number of untreated nonsickle erythrocytes/field in a well in which BSA or Siglec was immobilized.
(§3) To determine whether sialic acid on erythrocytes is a recognition determinant for P-selectin, prior to testing RBC adherence the erythrocytes were treated with sialidase using a published method. Packed RBCs were mixed with an equal volume of buffer or 0.1 U/mL Vibrio cholerae sialidase (Calbiochem, San Diego). […] Efficacy of sialidase on RBCs was confirmed by agglutination with peanut extract lectin (Arachis hypogea lectin, Sigma).
as §1

[3] = test system: Siglec-6-Ig chimera; test: nonstatic rotatory adherence assay: erythrocytes on immobilized control Siglec-6-Ig chimera; format: cell-based, human; conditions: mean±SEM, RBCs pretreated with sialidase
Experimental: as §2
To determine whether sialic acid on erythrocytes is a recognition determinant for P-selectin, prior to testing RBC adherence the erythrocytes were treated with sialidase using a published method. Packed RBCs were mixed with an equal volume of buffer or 0.1 U/mL Vibrio cholerae sialidase (Calbiochem, San Diego). […]
For each experiment mean adherence was set arbitrarily at 100% for the control data. The mean adherence of data derived from perturbations of control conditions were calculated as a percentage relative to the control. The average of the means from replicate experiments was then calculated. […]

[4] = test system: RBCs; test: hemolysis of sialidase-treated RBCs by colorimetric spectrophotometry; format: cell-based, human; conditions: 0.1 U/mL sialidase
Experimental: as §3

[5] = test system: thrombin-treated HUVECs (endothelial cell P-selectin); test: parallel plate flow adhesion of sickle erythrocytes to HUVECs; format: cell-based, human; conditions: n=10
From the text: Blood samples obtained from subjects with sickle cell disease and from healthy control subjects, as approved by the Committee on Human Research at the University of California-San Francisco (UCSF), were drawn into citrate. The buffy coat was removed after the initial centrifugation and after each of 3 subsequent washes of the remaining erythrocytes in phosphate buffered saline (PBS) and one wash in HAH buffer (Hanks balanced salt solution [HBSS; UCSF Cell Culture Facility, San Francisco, Calif.], 1% bovine serum albumin [BSA, Fraction V; Sigma, St Louis, Mo.], 50 mM HEPES [N-2-hydroxyethylpiperazine-N′-2- ethanesulfonic acid; Sigma], pH 7.40). Erythrocytes to be used in flow adhesion studies were suspended to a 0.5% hematocrit. To assess for leukocyte contamination, the erythrocyte preparation was exposed to 10 μg/mL rhodamine 6G, which stains leukocytes but not erythrocytes, and washed 3 times in HAH. No leukocytes were detected in the erythrocyte suspensions prepared using the above protocol. […]
Rolling cells were defined as those sickle cells that were in the same microscopic focal plane as the immobile surface or endothelial monolayer and moving at a distinctly slower velocity than the bulk flow. Those cells determined to be rolling were in contact with the substrata throughout their entire transit through the field of observation, which excludes those cells in brief transient contact with the substrate. Data on rolling adherence are expressed as the mean numbers of rolling red blood cells (cells/mm^2) and the mean rolling velocity of these cells (mm/s) from multiple experiments; error is expressed as SEM. The microscopic field in which adherent cells were measured has an area of 0.15 mm^2 and a volume of 0.038 mm^3. […] The velocity of rolling cells was determined by the time required for a cell to roll across the 0.5-mm field (0.5 mm/s). […] Data on firm adhesion are expressed as the mean numbers of firmly adherent red blood cells in the area described above. Statistical significance was determined using the Student t test. […]

[6] = HUVECs treated with 0.1 U/mL thrombin for 5 minutes vs untreated
[7] = erythrocytes pretreated with 0.02% trypsin, data not shown

| Molecule | percent adherence of nonsickle RBCs to thrombin-treated endothelium with agent [1] | percent adherence of nonsickle RBCs to untreated endothelium with agent [1] | percent adherence of sickle cells to thrombin-treated endothelium with agent [1] | percent adherence of sickle cells to untreated endothelium with agent [1] | reduction of adherence of nonsickle RBCs to thrombin-treated endothelium [1] | reduction of adherence of nonsickle RBCs to untreated endothelium [1] | reduction of adherence of sickle cells to thrombin-treated endothelium [1] | reduction of adherence of sickle cells to untreated endothelium [1] | percent adherence of nonsickle cells to P-selectin with agent [2] | percent adherence of sickle cells to P-selectin with agent [2] | reduction of adherence of nonsickle cells to P-selectin [2] | reduction of adherence of sickle cells to P-selectin [2] [%] | other results |
| --- | --- | --- | --- | --- | --- | --- | --- | --- | --- | --- | --- | --- | --- |
| CC(=O)N[C@H]1[C@H]([C@H](O)[C@H](O)CO)O[C@@](O[C@H]2[C@@H](O)[C@@H](CO)O[C@@H](O[C@H]3[C@H](O)[C@@H](O)C(O)O[C@@H]3CO)[C@@H]2O)(C(=O)O)C[C@@H]1O (stereo partly shown) [sLac, 3′-sialyl-lactose] | 162%±28% | 105%±15% | 304%±74% | 144%±44% | Neither did sLac reduce significantly | not reduced significantly | Neither did sLac reduce significantly | not reduced significantly | – | – | – | – | – |
| CC(=O)NC1C(O)CC(OC2C(O)C(CO)OC(OC3C(CO)OC(O)C(NC(C)=O)C3OC3OC(C)C(O)C(O)C3O)C2O)(C(=O)O)OC1C(O)C(O)CO (stereo not shown) [sLeX, sialyl Lewis X (sLeX) tetrasaccharide] | 82%±41% | 55%±12% | 196%±38% | 91±8% | – | – | – | – | – | – | – | – | reduction of adherence compared with sLac present ([1]; nonsickle cells, thrombin-treated endothelial cells): 49%; reduction of adherence compared with sLac present ([1]; nonsickle cells, untreated endothelial cells, not significant): ~48%; reduction of adherence compared with sLac present ([1]; sickle cells, thrombin-treated endothelial cells): 36%; reduction of adherence compared with sLac present ([1]; sickle cells, untreated endothelial cells, not significant): ~37% |
| sialidase: Vibrio cholerae sialidase (Calbiochem) used to treat RBCs | 68%±15% | 53%±13% | 282%±133% | 191%±67% | 81% | 47% | 63% | 36% | 88%±11% | 182%+17% | no significant effect | 33 | percent adherence of nonsickle cells to Siglec-6 after sialidase ([3]; nonsickle cells): 79%±13%; percent adherence of sickle cells to Siglec-6 after sialidase ([3]; sickle cells): 157%±18%; hemolysis [4]: No hemolysis was detected |
| O=C(O)CN(CCN(CC(=O)O)CC(=O)O)CC(=O)O [EDTA] | – | – | – | – | – | – | – | – | 95%±11% | 177%±18% | 35% | 32 | – |
| thrombin | – | – | – | – | – | – | – | – | – | – | – | – | decrease in rolling velocities of sickle cells [5, 6]: 26%; increase in number of rolling sickle cells [5, 6]: 54%; increase in number of firmly adhered sickle cells ([5]; thrombin treatment of HUVECs vs untreated): 130% |
| B1 | – | – | – | – | – | – | – | – | – | – | – | – | adherence of sickle and nonsickle cells to untreated and thrombin-treated endothelial cells [1, 7]: reduced substantially; adhesion of sickle and nonsickle cells to immobilized P-selectin [2, 7]: did not reduce significantly |
